Experiments:
[1] = tested on: Uncoupling protein 2 (UCP2); assay: Gene expression in adipose tissue of Tempol-fed mice (Affymetrix MOE430A 2.0 array); type: in vivo
Experimental: (§1) In a further gene expression study, Tempol was administered to experimental mice at a dose of 5 g/kg of diet from 12 months through 15 months. Mice receiving the same diet without the addition of Tempol were used as a negative control. At the age of 15 months, the adipose tissue of the experimental animals was obtained. The expression of a broad spectrum of genes in the adipose tissue was assessed using chip-based microarray technology. Specifically, in this case an Affymetrix MOE430A 2.0 array, containing 12,960 genes, was employed. Such chips are well known in the art and are widely used to assess gene expression.

[2] = tested on: Hypoxia-inducible factor, alpha subunit (HIF1A); assay: as above; type: in vivo
Experimental: as §1

[3] = tested on: p53-related apoptosis effector related to PMP-22 (PERP); assay: as above; type: in vivo
Experimental: as §1

[4] = tested on: Superoxide dismutase 2 (SOD2); assay: as above; type: in vivo
Experimental: as §1

[5] = tested on: Cyclooxygenase 1 (COX-1); assay: as above; type: in vivo
Experimental: as §1

[6] = tested on: Sirtuin 2 (SIRT2); assay: as above; type: in vivo
Experimental: as §1

[7] = tested on: Glutathione S-transferase M3 (GSTM3); assay: as above; type: in vivo
Experimental: as §1

[8] = tested on: Brain protein I3 (BRI3); assay: as above; type: in vivo
Experimental: as §1

[9] = tested on: cancer-related proteins in the cancerous tissue; assay: Example 1: protein levels in cancerous tissue of patient diagnosed with cancer after Tempol; type: in vivo, human; conditions: 70-kilogram patient diagnosed with cancer; 1500 mg per day for 180 days
Experimental: (§2) A 70-kilogram patient diagnosed with cancer is administered a dose of 1500 mg of Tempol per day for 180 days. This may be administered in a single dose, or may be administered as a number of smaller doses over a 24-hour period: for example, three 500-mg doses at eight-hour intervals. Following treatment, the protein levels of elongation factor-1 delta, ADAM12, cathepsin B, peroxisome proliferator-activated receptor-δ, hypoxia-inducible factor alpha subunit, superoxide dismutase 2, uncoupling protein 2, and cyclooxygenase 1 in the cancerous tissue are reduced, and the levels of mitogen-activated protein kinase kinase 5, glutathione S-transferase M3, PERP, sirtuin 2, and brain protein I3 are increased.

[10] = tested on: Mitogen activated protein kinase kinase 5; assay: Gene expression in cardiac tissue of Tempol-fed mice (chip-based microarray); type: in vivo
Experimental: (§3) To assess the effects of Tempol on gene expression, Tempol was administered to experimental mice at a dose of 5 mg/g of food from 14 months to 31 months after birth. Mice receiving the same food without the addition of Tempol were used as a negative control. At the age of 31 months, the experimental animals were sacrificed and the hearts were surgically removed. The expression of a broad spectrum of genes in the cardiac tissue was assessed using chip-based microarray technology. Such chips are well known in the art and are widely used to assess gene expression.

[11] = tested on: Elongation factor-1-δ; assay: as above; type: in vivo
Experimental: as §3

[12] = tested on: Peroxisome Proliferator-Activated Receptor-δ; assay: as above; type: in vivo
Experimental: as §3

[13] = tested on: Cathepsin B; assay: as above; type: in vivo
Experimental: as §3

[14] = tested on: Meltrin-alpha (ADAM12); assay: as above; type: in vivo
Experimental: as §3

[15] = tested on: cancer-related proteins in the cancerous tissue; assay: Example 2: protein levels in patient with familial risk factors for cancer after Tempol; type: in vivo, human; conditions: 70-kilogram patient with familial risk factors, no symptoms; 1500 mg per day for 180 days
Description: as §2, with “This” for “A 70-kilogram patient diagnosed with cancer is administered a dose of 1500 mg of Tempol per day for 180 days. This”

[16] = 5 g/kg of diet from 12 through 15 months
[17] = reduction in Tempol-treated animals
[18] = Tempol-treated vs control mice, negative = downregulated, P Value 0.004
[19] = 5 mg/g of food from 14 to 31 months, mouse tp51
[20] = 5 mg/g of food from 14 to 31 months, mouse tp52
[21] = 5 mg/g of food from 14 to 31 months, mouse tp53
[22] = Tempol-treated vs control mice, negative = downregulated

CC1(C)CC(O)CC(C)(C)N1[O] [Tempol, 4-hydroxy-2,2,6,6-tetramethylpiperidine-1-oxyl]
UCP2 expression, Mean (Tempol-treated mice) [1, 16]: 2140
UCP2 expression Fold change ([1]; Tempol-treated vs control mice, negative = downregulated, P Value 0.012): −1.61 fold
UCP2 expression reduced (fold) [1, 17]: 1.61 fold
HIF1A expression, Mean (Tempol-treated mice) [2, 16]: 2203
HIF1A expression Fold change [2, 18]: −1.23 fold
HIF1 alpha expression reduced (fold) [2, 17]: 1.23 fold
PERP expression, Mean (Tempol-treated mice) [3, 16]: 82
PERP expression Fold change ([3]; Tempol-treated vs control mice, upregulated, P Value 0.049): 1.66 fold
SOD2 expression, Mean (Tempol-treated mice) [4, 16]: 4423
SOD2 expression Fold change [4, 18]: −1.33 fold
SOD2 expression reduced (fold) [4, 17]: 1.33 fold
COX-1 expression, Mean (Tempol-treated mice) [5, 16]: 331
COX-1 expression Fold change ([5]; Tempol-treated vs control mice, negative = downregulated, P Value 0.006): −1.18 fold
COX-1 expression reduced (fold) [5, 17]: 1.18 fold
SIRT2 expression, Mean (Tempol-treated mice) [6, 16]: 686
SIRT2 expression Fold change ([6]; Tempol-treated vs control mice, upregulated, P Value 0.048): 1.16 fold
GSTM3 expression, Mean (Tempol-treated mice) [7, 16]: 74
GSTM3 expression Fold change ([7]; Tempol-treated vs control mice, upregulated, P Value 0.001): 7.52 fold
BRI3 expression, Mean (Tempol-treated mice) [8, 16]: 1835
BRI3 expression Fold change ([8]; Tempol-treated vs control mice, upregulated, P Value 0.003): 1.18 fold
levels of MAPKK5, GSTM3, PERP, sirtuin 2 and brain protein I3 [9]: increased
protein levels of elongation factor-1 delta, ADAM12, cathepsin B, PPAR-δ, HIF alpha subunit, SOD2, UCP2 and COX-1 in the cancerous tissue [9]: reduced
MAPKK5 expression, TEMPOL-treated mice tp51 [10, 19]: 41
MAPKK5 expression, TEMPOL-treated mice tp52 [10, 20]: 84
MAPKK5 expression, TEMPOL-treated mice tp53 [10, 21]: 63
MAPKK5 expression Fold change ([10]; Tempol-treated vs control mice, upregulated): 2.2 fold
Elongation factor-1-δ expression, TEMPOL-treated mice tp51 [11, 19]: 12
Elongation factor-1-δ expression, TEMPOL-treated mice tp52 [11, 20]: 115
Elongation factor-1-δ expression, TEMPOL-treated mice tp53 [11, 21]: 185
Elongation factor-1-δ expression Fold change [11, 22]: −5.9 fold
Elongation factor-1-δ expression reduced (fold) [11, 17]: 5.9 fold
PPAR-δ expression, TEMPOL-treated mice tp51 [12, 19]: 1
PPAR-δ expression, TEMPOL-treated mice tp52 [12, 20]: 19
PPAR-δ expression, TEMPOL-treated mice tp53 [12, 21]: 28
PPAR-δ expression Fold change [12, 22]: −2.3 fold
PPAR-δ expression reduced (fold) [12, 17]: 2.3 fold
Cathepsin B expression, TEMPOL-treated mice tp51 [13, 19]: −12
Cathepsin B expression, TEMPOL-treated mice tp52 [13, 20]: 6
Cathepsin B expression, TEMPOL-treated mice tp53 [13, 21]: 13
Cathepsin B expression Fold change [13, 22]: −2.8 fold
Cathepsin B expression reduced (fold) [13, 17]: 2.8 fold
ADAM12 expression, TEMPOL-treated mice tp51 [14, 19]: −16
ADAM12 expression, TEMPOL-treated mice tp52 [14, 20]: −4
ADAM12 expression, TEMPOL-treated mice tp53 [14, 21]: −14
ADAM12 expression Fold change [14, 22]: −2.3 fold
ADAM12 expression reduced (fold) [14, 17]: 2.3 fold
levels of MAPKK5, GSTM3, PERP, sirtuin 2 and brain protein I3 [15]: increased
protein levels of elongation factor-1 delta, ADAM12, cathepsin B, PPAR-δ, HIF alpha subunit, SOD2, UCP2 and COX-1 in the cancerous tissue [15]: reduced

— patent US20120046314A1, “[…] USE IN TREATING OR […]” (MITOS, INC., priority 2005, published 2012)
